Measured values taken from paper PMC3796470, “BdorCSP2 Is Important for Antifeed and Oviposition-Deterring Activities Induced by Rhodojaponin-III against Bactrocera dorsalis” (PLoS ONE, 2013).

Tests used:
BdorCSP2 [1] = target: T1, BdorCSP2 (Bactrocera dorsalis, UniProt S5TKX2); test: fluorescent probe titration with Scatchard analysis; format: binding
T1 construct: gene CSP2; mature BdorCSP2 (signal peptide removed), recombinant from E. coli BL21 (DE3), His-tag-removed; GenBank KC897022
T1 sequence (S5TKX2 23-156): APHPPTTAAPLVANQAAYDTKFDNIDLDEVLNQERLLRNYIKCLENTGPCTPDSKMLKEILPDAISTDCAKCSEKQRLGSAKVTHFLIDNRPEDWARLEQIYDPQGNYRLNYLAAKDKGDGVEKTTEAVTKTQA

BdorCSP2 [2] = target: T1, BdorCSP2; test: competitive fluorescence binding assay, displacement of 1-NPN

Compound | Kd (BdorCSP2 [1]) [µM] | Kd (BdorCSP2 [2]) [µM]
c1ccc(Nc2cccc3ccccc23)cc1 [N-phenyl-1-naphthylamine] | 2.71 | –
CC1(C)[C@H]2O[C@H]2[C@H]2[C@](C)(O)[C@@H]3CC[C@@H]4[C@@H](O)[C@@]3(C[C@@H](O)[C@@]21O)C[C@@]4(C)O [Rhodojaponin-III] | – | 34.6
